# Assays:
# [1] = Drug metabolism in BALB/c mouse bile assessed as 2-(3,4-dimethoxyphenyl)-5-hydroxy-7-(2-hydroxyethoxy)-3-((2S,3R,4S,5S,6R)-3,4,5-trihydroxy-6-(((2R,3R,4R,5R,6S)-3,4,5-trihydroxy-6-methyltetrahydro-2H-pyran-2-yloxy)methyl)tetrahydro-2H-pyran-2-yloxy)-4H-chromen-4-one formation at 500 mg/kg, ip measured after 60 mins by LC-DAD-TOF-MS analysis; format: ADME, organism-based; design: dose 500 mg/kg, route intraperitoneal; details: in vivo, 1 h
# [2] = Drug metabolism in BALB/c mouse bile assessed as (2S,3S,4S,5R,6S)-6-(5-(7-(carboxymethoxy)-5-hydroxy-4-oxo-3-((2S,3R,4S,5S,6R)-3,4,5-trihydroxy-6-(((2R,3R,4R,5R,6S)-3,4,5-trihydroxy-6-methyltetrahydro-2H-pyran-2-yloxy)methyl)tetrahydro-2H-pyran-2-yloxy)-4H-chromen-2-yl)-2-methoxyphenoxy)-3,4,5-trihydroxytetrahydro-2H-pyran-2-carboxylic acid formation at 500 mg/kg, ip measured after 60 mins by LC-DAD-TOF-MS analysis; format: ADME, organism-based; design: dose 500 mg/kg, route intraperitoneal; details: in vivo, 1 h
# [3] = Drug metabolism in BALB/c mouse bile assessed as 2-(5-hydroxy-2-(3-hydroxy-4-methoxyphenyl)-4-oxo-3-((2S,3R,4S,5S,6R)-3,4,5-trihydroxy-6-(((2R,3R,4R,5R,6S)-3,4,5-trihydroxy-6-methyltetrahydro-2H-pyran-2-yloxy)methyl)tetrahydro-2H-pyran-2-yloxy)-4H-chromen-7-yloxy)acetic acid formation at 500 mg/kg, ip measured after 60 mins by LC-DAD-TOF-MS analysis; format: ADME, organism-based; design: dose 500 mg/kg, route intraperitoneal; details: in vivo, 1 h
# [4] = Drug metabolism in BALB/c mouse bile assessed as (2S,3S,4S,5R,6S)-6-(5-(7-(carboxymethoxy)-5-hydroxy-4-oxo-3-((2S,3R,4S,5S,6R)-3,4,5-trihydroxy-6-(((2R,3R,4R,5R,6S)-3,4,5-trihydroxy-6-methyltetrahydro-2H-pyran-2-yloxy)methyl)tetrahydro-2H-pyran-2-yloxy)-4H-chromen-2-yl)-2-hydroxyphenoxy)-3,4,5-trihydroxytetrahydro-2H-pyran-2-carboxylic acid formation at 500 mg/kg, ip measured after 60 mins by LC-DAD-TOF-MS analysis; format: ADME, organism-based; design: dose 500 mg/kg, route intraperitoneal; details: in vivo, 1 h
# [5] = Drug level in BALB/c mouse bile treated with 7-mono-O-(beta-hydroxyethyl)-rutoside assessed as relative metabolite level at 500 mg/kg, ip measured after 60 mins by LC-DAD-TOF-MS analysis; format: ADME, organism-based; design: dose 500 mg/kg, route intraperitoneal; details: in vivo, 1 h
# [6] = Drug metabolism in BALB/c mouse bile assessed as 2-(3,4-dimethoxyphenyl)-5-hydroxy-7-(2-hydroxyethoxy)-3-((2S,3R,4S,5S,6R)-3,4,5-trihydroxy-6-(hydroxymethyl)tetrahydro-2H-pyran-2-yloxy)-4H-chromen-4-one formation at 500 mg/kg, ip measured after 240 mins by LC-DAD-TOF-MS analysis; format: ADME, organism-based; design: dose 500 mg/kg, route intraperitoneal; details: in vivo
# [7] = Drug metabolism in BALB/c mouse bile assessed as (2S,2'S,3S,3'S,4S,4'S,5R,5'R,6S,6'S)-6,6'-(4-(5-hydroxy-7-(2-hydroxyethoxy)-4-oxo-3-((2S,3R,4S,5S,6R)-3,4,5-trihydroxy-6-(((2R,3R,4R,5R,6S)-3,4,5-trihydroxy-6-methyltetrahydro-2H-pyran-2-yloxy)methyl)tetrahydro-2H-pyran-2-yloxy)-4H-chromen-2-yl)-1,2-phenylene)bis(oxy)bis(3,4,5-trihydroxytetrahydro-2H-pyran-2-carboxylic acid) formation at 500 mg/kg, ip measured after 60 mins by LC-DAD-TOF-MS analysis; format: ADME, organism-based; design: dose 500 mg/kg, route intraperitoneal; details: in vivo, 1 h
# [8] = Drug metabolism in BALB/c mouse bile assessed as (2S,3S,4S,5R,6S)-3,4,5-trihydroxy-6-(5-(5-hydroxy-7-(2-hydroxyethoxy)-4-oxo-3-((2S,3R,4S,5S,6R)-3,4,5-trihydroxy-6-(((2R,3R,4R,5R,6S)-3,4,5-trihydroxy-6-methyltetrahydro-2H-pyran-2-yloxy)methyl)tetrahydro-2H-pyran-2-yloxy)-4H-chromen-2-yl)-2-methoxyphenoxy)tetrahydro-2H-pyran-2-carboxylic acid formation at 500 mg/kg, ip measured after 60 mins by LC-DAD-TOF-MS analysis; format: ADME, organism-based; design: dose 500 mg/kg, route intraperitoneal; details: in vivo, 1 h
# [9] = Drug metabolism in BALB/c mouse bile assessed as (S)-4-amino-5-((R)-1-(carboxymethylamino)-3-(2,3-dihydroxy-6-(5-hydroxy-7-(2-hydroxyethoxy)-4-oxo-3-((2S,3R,4S,5S,6R)-3,4,5-trihydroxy-6-(((2R,3R,4R,5R,6S)-3,4,5-trihydroxy-6-methyltetrahydro-2H-pyran-2-yloxy)methyl)tetrahydro-2H-pyran-2-yloxy)-4H-chromen-2-yl)phenylthio)-1-oxopropan-2-ylamino)-5-oxopentanoic acid formation at 500 mg/kg, ip measured after 60 mins by LC-DAD-TOF-MS analysis; format: ADME, organism-based; design: dose 500 mg/kg, route intraperitoneal; details: in vivo, 1 h
# [10] = Drug metabolism in BALB/c mouse bile assessed as 5-hydroxy-2-(3-hydroxy-4-methoxyphenyl)-7-(2-hydroxyethoxy)-3-((2S,3R,4S,5S,6R)-3,4,5-trihydroxy-6-(hydroxymethyl)tetrahydro-2H-pyran-2-yloxy)-4H-chromen-4-one formation at 500 mg/kg, ip measured after 240 mins by LC-DAD-TOF-MS analysis; format: ADME, organism-based; design: dose 500 mg/kg, route intraperitoneal; details: in vivo
# [11] = Half life in mouse plasma; format: ADME, cell-free
# [12] = Half life in mouse heart; format: ADME
# [13] = Retention time of the compound by LC-DAD-TOF-MS analysis; format: physicochemical
# [14] = Drug metabolism in BALB/c mouse bile assessed as 5-hydroxy-2-(3-hydroxy-4-methoxyphenyl)-7-(2-hydroxyethoxy)-3-((2S,3R,4S,5S,6R)-3,4,5-trihydroxy-6-(((2R,3R,4R,5R,6S)-3,4,5-trihydroxy-6-methyltetrahydro-2H-pyran-2-yloxy)methyl)tetrahydro-2H-pyran-2-yloxy)-4H-chromen-4-one formation at 500 mg/kg, ip measured after 60 mins by LC-DAD-TOF-MS analysis; format: ADME, organism-based; design: dose 500 mg/kg, route intraperitoneal; details: in vivo, 1 h
# [15] = Drug metabolism in BALB/c mouse bile assessed as 2-(2-(3,4-dihydroxyphenyl)-5-hydroxy-4-oxo-3-((2S,3R,4S,5S,6R)-3,4,5-trihydroxy-6-(((2R,3R,4R,5R,6S)-3,4,5-trihydroxy-6-methyltetrahydro-2H-pyran-2-yloxy)methyl)tetrahydro-2H-pyran-2-yloxy)-4H-chromen-7-yloxy)acetic acid formation at 500 mg/kg, ip measured after 60 mins by LC-DAD-TOF-MS analysis; format: ADME, organism-based; design: dose 500 mg/kg, route intraperitoneal; details: in vivo, 1 h
# [16] = Drug level in BALB/c mouse bile assessed as compound formation treated with monoHER at 500 mg/kg, ip measured after 60 mins by LC-DAD-TOF-MS analysis; format: ADME, organism-based; design: dose 500 mg/kg, route intraperitoneal; details: in vivo, 1 h
# [17] = Drug level in BALB/c mouse bile assessed as compound formation treated with monoHER at 500 mg/kg, ip measured after 240 mins by LC-DAD-TOF-MS analysis; format: ADME, organism-based; design: dose 500 mg/kg, route intraperitoneal; details: in vivo, 4 h
SMILES,Relative metabolite level in bile [5],Retention_time [13],Drug metabolism [16],other results
C[C@@H]1O[C@@H](OC[C@H]2O[C@@H](Oc3c(-c4ccc(O)c(O)c4)oc4cc(OCCO)cc(O)c4c3=O)[C@H](O)[C@@H](O)[C@@H]2O)[C@H](O)[C@H](O)[C@H]1O [MONOXERUTIN],29%,8.5 min,,Drug metabolism [1]: metabolite_detected; Drug metabolism [2]: metabolite_detected; Drug metabolism [3]: metabolite_detected; Drug metabolism [4]: metabolite_detected; Drug metabolism [6]: metabolite_detected; Drug metabolism [7]: metabolite_detected; Drug metabolism [8]: metabolite_detected; Drug metabolism [9]: metabolite_detected; Drug metabolism [10]: metabolite_detected; half-life [11]: 0.197 h; half-life [12]: 0.27 h; Drug metabolism [14]: metabolite_detected; Drug metabolism [15]: metabolite_detected
COc1ccc(-c2oc3cc(OCC(=O)O)cc(O)c3c(=O)c2O[C@@H]2O[C@H](CO[C@@H]3O[C@@H](C)[C@H](O)[C@@H](O)[C@H]3O)[C@@H](O)[C@H](O)[C@H]2O)cc1O[C@@H]1O[C@H](C(=O)O)[C@@H](O)[C@H](O)[C@H]1O,0.4%,8.8 min,metabolite_detected,
COc1ccc(-c2oc3cc(OCCO)cc(O)c3c(=O)c2O[C@@H]2O[C@H](CO[C@@H]3O[C@@H](C)[C@H](O)[C@@H](O)[C@H]3O)[C@@H](O)[C@H](O)[C@H]2O)cc1O,40%,11.1 min,metabolite_detected,
C[C@@H]1O[C@@H](OC[C@H]2O[C@@H](Oc3c(-c4ccc(O)c(O[C@@H]5O[C@H](C(=O)O)[C@@H](O)[C@H](O)[C@H]5O)c4)oc4cc(OCC(=O)O)cc(O)c4c3=O)[C@H](O)[C@@H](O)[C@@H]2O)[C@H](O)[C@H](O)[C@H]1O,0.3%,7.8 min,metabolite_detected,
C[C@@H]1O[C@@H](OC[C@H]2O[C@@H](Oc3c(-c4ccc(O)c(O)c4SC[C@H](NC(=O)CC[C@H](N)C(=O)O)C(=O)NCC(=O)O)oc4cc(OCCO)cc(O)c4c3=O)[C@H](O)[C@@H](O)[C@@H]2O)[C@H](O)[C@H](O)[C@H]1O,0.6%,3.4 min,metabolite_detected,
COc1ccc(-c2oc3cc(OCCO)cc(O)c3c(=O)c2O[C@@H]2O[C@H](CO)[C@@H](O)[C@H](O)[C@H]2O)cc1OC,0.6%,12.5 min,,Drug metabolism [17]: metabolite_detected
COc1ccc(-c2oc3cc(OCCO)cc(O)c3c(=O)c2O[C@@H]2O[C@H](CO[C@@H]3O[C@@H](C)[C@H](O)[C@@H](O)[C@H]3O)[C@@H](O)[C@H](O)[C@H]2O)cc1O[C@@H]1O[C@H](C(=O)O)[C@@H](O)[C@H](O)[C@H]1O,9%,6.9 min,metabolite_detected,
COc1cccc2c1C(=O)c1c(O)c3c(c(O)c1C2=O)C[C@@](O)(C(=O)CO)C[C@@H]3O[C@H]1C[C@H](N)[C@H](O)[C@H](C)O1 [DOXORUBICIN],,,,half-life [11]: 12.6 h; half-life [12]: 11.5 h
COc1ccc(-c2oc3cc(OCC(=O)O)cc(O)c3c(=O)c2O[C@@H]2O[C@H](CO[C@@H]3O[C@@H](C)[C@H](O)[C@@H](O)[C@H]3O)[C@@H](O)[C@H](O)[C@H]2O)cc1O,5%,12.3 min,metabolite_detected,
C[C@@H]1O[C@@H](OC[C@H]2O[C@@H](Oc3c(-c4ccc(O[C@@H]5O[C@H](C(=O)O)[C@@H](O)[C@H](O)[C@H]5O)c(O[C@@H]5O[C@H](C(=O)O)[C@@H](O)[C@H](O)[C@H]5O)c4)oc4cc(OCCO)cc(O)c4c3=O)[C@H](O)[C@@H](O)[C@@H]2O)[C@H](O)[C@H](O)[C@H]1O,0.7%,7.1 min,metabolite_detected,
COc1ccc(-c2oc3cc(OCCO)cc(O)c3c(=O)c2O[C@@H]2O[C@H](CO)[C@@H](O)[C@H](O)[C@H]2O)cc1O,0.9%,7.6 min,,Drug metabolism [17]: metabolite_detected
C[C@@H]1O[C@@H](OC[C@H]2O[C@@H](Oc3c(-c4ccc(O)c(O)c4)oc4cc(OCC(=O)O)cc(O)c4c3=O)[C@H](O)[C@@H](O)[C@@H]2O)[C@H](O)[C@H](O)[C@H]1O,2%,9.7 min,metabolite_detected,
COc1ccc(-c2oc3cc(OCCO)cc(O)c3c(=O)c2O[C@@H]2O[C@H](CO[C@@H]3O[C@@H](C)[C@H](O)[C@@H](O)[C@H]3O)[C@@H](O)[C@H](O)[C@H]2O)cc1OC,0.5%,14.8 min,metabolite_detected,
